This experiment deals with T1, human GABA A α5β3γ2 receptor (Homo sapiens, UniProt P18507+P31644).
T1 construct: expressed in transfected cells; host or cells: HEK293 (transiently transfected), membranes
Kind of experiment: [3H]flumazenil competition binding to HEK293 cells expressing human GABA A receptors. The settings on record: competition for [3H]flumazenil (0.5 nM for α5); HEK293 cells expressing human (transiently transfected) receptors; means of two determinations; read-out: hKi GABA Aα5. The protocol: The affinity of compounds at GABA A receptor subtypes was measured by competition for [^3H]flumazenil (85 Ci/mmol; Roche) binding to HEK293 cells expressing rat (stably transfected) or human (transiently transfected) receptors of composition α1β3γ2, α2β3γ2, α3β3γ2 and α5β3γ2.
Cell pellets were suspended in Krebs-tris buffer (4.8 mM KCl, 1.2 mM CaCl2, 1.2 mM MgCl2, 120 mM NaCl, 15 mM Tris; pH 7.5; binding assay buffer), homogenized by polytron for ca. 20 sec on ice and centrifuged for 60 min at 4° C. (50000 g; Sorvall, rotor: SM24=20000 rpm). The cell pellets were resuspended in Krebs-tris buffer and homogenized by polytron for ca. 15 sec on ice. Protein was measured (Bradford method, Bio-Rad) and aliquots of 1 mL were prepared and stored at −80° C.
Radioligand binding assays were carried out in a volume of […] (96-well plates) which contained […] of cell membranes, [^3H]flumazenil at a concentration of 1 nM for α1, α2, α3 subunits and 0.5 nM for α5 subunits and the test compound in the range of […]. Nonspecific binding was defined by 10^−5 M diazepam and typically represented less than 5% of the total binding. Assays were incubated to equilibrium for 1 hour at 4° C. and harvested onto GF/C uni-filters (Packard) by filtration using a Packard harvester and washing with ice-cold wash buffer (50 mM Tris; pH 7.5). After drying, filter-retained radioactivity was detected by liquid scintillation counting. Ki values were calculated using Excel-Fit (Microsoft) and are the means of two determinations.
Representative test results, obtained by the above described assay measuring binding affinity to HEK293 cells expressing human (h) receptors, are shown in table 1 below.

From patent US8357703B2, “Pyridines” (Hoffmann-La Roche Inc., priority 2009, dated 2013) come the findings set out here.

pKi: −log10 of the molar value.

As for `CCCCc1noc(C)c1COc1ccc(C(=O)N[C@@H](C)C(F)(F)F)cn1` [Example 20, 6-((3-Butyl-5-methyl-isoxazol-4-yl)methoxy)-N—((S)-2,2,2-trifluoro-1-methyl-ethyl)-nicotinamide], the pKi is 8.12.

Turning to `CCCCc1nocc1COc1ccc(C(=O)N[C@@H](C)CO)cn1` [Example 28, 6-((3-Butyl-isoxazol-4-yl)methoxy)-N—((S)-2-hydroxy-1-methyl-ethyl)-nicotinamide], the pKi was 7.44.

For `CCCCc1nocc1COc1ccc(C(=O)NCC(F)(F)F)cn1` [Example 26, 6-((3-Butyl-isoxazol-4-yl)methoxy)-N-(2,2,2-trifluoro-ethyl)-nicotinamide], the pKi was 7.35.

With `CCCCc1noc(C)c1COc1ccc(C(=O)NCCO)cn1` [Example 10, 6-((3-Butyl-5-methyl-isoxazol-4-yl)methoxy)-N-(2-hydroxy-ethyl)-nicotinamide], the pKi was 8.24.

Take `Cc1onc(C2CCCCC2)c1COc1ccc(C(=O)NCCO)cn1` [Example 34, 6-((3-Cyclohexyl-5-methyl-isoxazol-4-yl)methoxy)-N-(2-hydroxy-ethyl)-nicotinamide]: the pKi was 8.24.

Regarding `CCCCc1noc(C)c1COc1ccc(C(=O)N[C@H]2CCOC2)cn1` [Example 16, 6-((3-Butyl-5-methyl-isoxazol-4-yl)methoxy)-N-(S)-tetrahydro-furan-3-yl-nicotinamide], the pKi was 8.19.

With `CCCCc1noc(C)c1COc1ccc(C(=O)NCC(C)(C)O)cn1` [Example 13, 6-((3-Butyl-5-methyl-isoxazol-4-yl)methoxy)-N-(2-hydroxy-2-methyl-propyl)-nicotinamide], the pKi is 8.04.

In the case of `CCCCc1noc(C)c1COc1ccc(C(=O)N[C@@H](C)CO)cn1` [Example 12, (−)-6-((3-Butyl-5-methyl-isoxazol-4-yl)methoxy)-N-(2-hydroxy-1-methyl-ethyl)-nicotinamide], the pKi was 8.42.

As for `CCCCc1noc(C)c1CNc1ccc(C(=O)NC(C)C)cn1` [Example 42, 6-[((3-Butyl-5-methyl-isoxazol-4-yl)methyl)-amino]-N-isopropyl-nicotinamide], the pKi is 7.24.

Regarding `Cc1onc(C2CCCCC2)c1COc1ccc(C(=O)NC(C)CO)cn1` (stereo not drawn) [Example 36, 6-((3-Cyclohexyl-5-methyl-isoxazol-4-yl)methoxy)-N-(2-hydroxy-1-methyl-ethyl)-nicotinamide], the pKi was 8.43.

Consider `CCCCc1noc(C)c1COc1ccc(C(=O)NC(C)C)cn1` [Example 5, 6-((3-Butyl-5-methyl-isoxazol-4-yl)methoxy)-N-isopropyl-nicotinamide], for which the pKi was 8.39.

Consider `Cc1onc(C2CCOCC2)c1COc1ccc(C(=O)NC(C)C)cn1` [Example 37, N-Isopropyl-6-[(5-methyl-3-(tetrahydro-pyran-4-yl)-isoxazol-4-yl)methoxy]-nicotinamide], for which the pKi was 7.66.

Regarding `Cc1onc(C2CCOCC2)c1COc1ccc(C(=O)N[C@@H](C)CO)cn1` [Example 38, N—((S)-2-Hydroxy-1-methyl-ethyl)-6-[(5-methyl-3-(tetrahydro-pyran-4-yl)-isoxazol-4-yl)methoxy]-nicotinamide], the pKi was 7.38.

As for `Cc1onc(OCC(C)C)c1COc1ccc(C(=O)NC(C)C)cn1` [Example 39, 6-((3-Isobutoxy-5-methyl-isoxazol-4-yl)methoxy)-N-isopropyl-nicotinamide], the pKi was 8.33.

As for `CCCCc1noc(C)c1COc1ccc(C(=O)NC2(C)CC2)cn1` [Example 21, 6-((3-Butyl-5-methyl-isoxazol-4-yl)methoxy)-N-(1-methyl-cyclopropyl)-nicotinamide], the pKi was 7.94.
